In patent publication US4179451A, “Novel hydroxy substituted 15-deoxy-5-cis-prostenoic acids and esters” (American Cyanamid Company, priority 1978, dated 1979):
Like-named read-outs stand apart in the source and are kept apart here.

How the values were obtained:
[1] = system: bronchospasms elicited by 5-hydroxytryptamine; test: Bronchodilator Activity (Konzett Assays), 5-hydroxytryptamine; format: in vivo, guinea pigs; settings: Cavia porcellus; three logarithmic cumulative intravenous doses; spasmogen 5-hydroxytryptamine; read-out: ED50, Spasmogenic Agent 5-hydroxytryptamine
Description: (§1) The compounds of this invention are useful as bronchodilators for the treatment of asthma and chronic bronchitis. Bronchodilator activity is determined in guinea pigs against bronchospasms elicited by intravenous injections of 5-hydroxytryptamine, histamine or acetylcholine by the Konzett procedure. [See J. Lulling, P. Lievens, F. El Sayed and J. Prignot, Arzneimittel-Forschung, 18, 955 (1968).]
(§2) In Table IV which follows bronchodilator activity for representative compounds of this invention against one or more of three spasmogenic agents is expressed as an ED50 determined from the results obtained with three logarithmic cummulative intravenous doses. In this assay, these compounds of this invention provide an effect of longer duration than does natural l-PGE1 or l-PGE2.

[2] = system: bronchospasms elicited by histamine; test: Bronchodilator Activity (Konzett Assays), histamine; format: in vivo, guinea pigs; settings: Cavia porcellus; three logarithmic cumulative intravenous doses; spasmogen histamine; read-out: ED50, Spasmogenic Agent histamine
Description: as §1, §2

[3] = system: bronchospasms elicited by acetylcholine; test: Bronchodilator Activity (Konzett Assays), acetylcholine; format: in vivo, guinea pigs; settings: Cavia porcellus; three logarithmic cumulative intravenous doses; spasmogen acetylcholine; read-out: ED50, Spasmogenic Agent Acetylcholine
Description: as §1, §2

[4] = system: basal gastric acid secretion; test: Inhibition of basal gastric acid secretion in the Acute Gastric Fistula Rat; format: in vivo, Female Sprague-Dawley rats; settings: 1 h, intraduodenal 10 mg./kg., after 60 minutes, read-out: % Inhibition of Total Acid or Output
Description: Inhibition of basal gastric acid secretion can be determined by the following procedure. Female Sprague-Dawley rats weighing 140-160 grams are fastened in individual cages for 18-24 hours. The rats are then lightly anesthetized with ether and their front teeth extracted to avoid destruction of the plastic cannula. A midline incision is then made and the stomach and duodenum exposed. A flanged polyvinyl tube is inserted into the fundic portion of the stomach and secured with a purse string suture line using 4-O Mersilene. The rat is then dosed by injection of the compound into the duodenum (1.0 ml. per 100 gram body weight). After dosing, the abdominal wall and skin are closed using metal wound clips. The rat is replaced in a cage containing a longitudinal slit to allow the polyvinyl tube to hang freely. An 8 ml. plastic collecting tube is attached to the flanged cannula and hangs freely below the cage. The first 30 minute sample is discarded designating this time as zero. The collecting tube is attached again and samples removed at the end of 60 and/or 120 minutes. The hourly samples are then transferred to a 15 ml. centrifuge and centrifuged for 5-10 minutes. Total and sediment volume are then recorded with supernatent volume being used as volume of secretion. A 1 ml. or less aliquot is then removed and placed in a 50 ml. beaker containing 10 ml. of distilled water. This sample is then titrated using 0.01 N to Na H to pH 7.0 using a Beckman zeromatic pH meter. Volume, titratable acidity (meq/L) and total acid output (μeq/hour) are recorded. Percent inhibition is determined by comparison with the appropriate control. Groups of three rats are used for preliminary testing, and groups of six rats are used for dose-response evaluations. All compounds are administered in a vehicle consisting of 0.5% methocel, 0.4% tween 80, and saline at a constant volume of 1 ml./100 gram rat. Samples are dispersed by sonification. Percent inhibition is calculated on basis of concurrent vehicle control.
In Table III which follows is given the effect on total acid output after 60 minutes of a 10 mg./kg. intraduodenal dose of representative compounds of this invention.

[5] = system: mean arterial blood pressure; test: Hypotensive Response (normotensive rat); format: in vivo, Male Wistar strain rats; settings: anesthetized rat
Description: This procedure is a modification of the techniques described by Pike et al., Prostaglandins, Nobel Symposium 2, Stockholm, June, 1966; p. 165.
Male Wistar strain rats (Royal Hart Farms) averaging approximately 250 grams in weight were fastened to rat boards in a supine position by means of canvas vests and limb ties. The femoral area was infiltrated subcutaneously with lidocaine and the iliac artery and vein were exposed and cannulated. Arterial blood pressure (systolic/diastolic) was recorded using a Statham P23 Bb pressure transducer-Offner dynograph system. To obtain a stable blood pressure, the animals were anethetized before use with pentobarbital, 30 mg./kg. of body weight intravenously, and also were given hexamethoxium bitartrate, 2 mg./kg. of body weight intravenously. The test compounds were prepared by ultrasonic dispersion in a Saline-Tween 80® vehicle. A constant intravenous dose volume of 0.5 ml. was administered and test doses ranged from 0.1 to 10.0 mg./kg. of body weight.
In Table V below are recorded the percent decrease from normal of mean arterial blood pressure induced by given doses of representative compounds of this invention.

[6] = system: basal gastric acid secretion; test: Inhibition of basal gastric acid secretion in the Acute Gastric Fistula Rat; format: in vivo, Female Sprague-Dawley rats; settings: read-out: % Inhibition of Total Acid or Output; for inhibition in vivo at 2.5 mg/kg: intraduodenal 2.5 mg./kg.; for inhibition in vivo at 0.63 mg/kg: intraduodenal 0.63 mg./kg.
[7] = system: ulcerogenic properties of indomethacin; test: protection against the ulcerogenic properties of indomethacin; format: in vivo, Rats; settings: indomethacin 20 mg./kg. s.c., score 0 (normal stomach) to 4, control 3.0
Description: The protection against the ulcerogenic properties of indomethacin was determined in the following manner. Rats were starved for 48 hours (water was given ad libitum). Indomethacin (20 mg./kg. of body weight) was administered by the subcutaneous route and one-half the dose of the test compound was administered by gavage at the same time. After three hours, the second half of the test compound was administered also by gavage. Five hours after the administration of indomethacin the animals were decapitated and the stomachs removed. The stomachs were washed with distilled water, blotted on gauze, cut along the larger curvature, and the contents rinsed with distilled water. The stomachs were spread out, pinned on a cork and visualized under magnifying glass for ulcers. The criteria for scoring of ulcers was as previously reported [Abdel-Galil et al. Brit. J. Pharmac. Chemotherapy 33:1-14 (1968)].
1--Petechial hemorrhage or pin point ulcer
3--Many ulcers, a few large
4--Many ulcers, mainly large
A difference of at least 0.7 unit between the scores for control animals (treated with indomethacin but not test compound) and animals treated with indomethacin and test compound is considered indicative of activity from the test compound. […]

gastric acid secretion = test: Gastric acid secretion inhibitory action (Shay rat procedure); format: in vivo, rats (male, CFE strain)
[8] = 1 h, oral dose 10 mg./kg., after 60 minutes

Compound	ED50 [1] [µg/kg]	ED50 [2] [µg/kg]	ED50 [3] [µg/kg]	inhibition in vivo at 10 mg/kg [4] [%]	other results
CCC/C=C/C(O)C/C=C/[C@H]1C=CC(=O)[C@@H]1C/C=C\CCCC(=O)O (relative stereo) [9-oxo-16-hydroxy-20-methyl-5-cis,10,13-trans,17-trans-prostatetraenoic acid]	625	369	2280		
CCCCCC(O)C/C=C/[C@H]1[C@H](O)CC(=O)[C@@H]1C/C=C\CCCC(=O)O (relative stereo) [9-oxo-11α,16-dihydroxy-20-methyl-5-cis,13-trans-prostadienoic acid]	0.32	0.29	0.72	42	
CCCCCC(/C=C/[C@H]1[C@H](O)CC(=O)[C@@H]1C/C=C\CCCC(=O)O)CO (relative stereo) [9-oxo-11α-hydroxy-15-hydroxymethyl-5-cis,13-trans-prostadienoic acid]				5	
CCCC(C)C(O)C/C=C/[C@H]1[C@H](O)CC(=O)[C@@H]1C/C=C\CCCC(=O)O (relative stereo) [9-oxo-11α,16-dihydroxy-17-methyl-5-cis,13-trans-prostadienoic acid]	1.9	0.49	3	93	% Decrease in Mean Arterial Blood Pressure ([5]; intravenous 1.0 mg./kg.): 42%; inhibition in vivo at 10 mg/kg [6, 8]: 89%; inhibition in vivo at 10 mg/kg ([6]; 2 h, oral dose 10 mg./kg., after 120 minutes): 85%
CCCCC(C/C=C/[C@H]1[C@H](OC2CCCCO2)CC(=O)[C@@H]1C/C=C\CCCC(=O)O)OC(c1ccccc1)(c1ccccc1)c1ccccc1 (relative stereo) [9-oxo-11α-tetrahydropyranyloxy-16-triphenylmethoxy-5-cis,13-trans-prostadienoic acid]				68	
CCCC(C)C(O)C/C=C/[C@H]1[C@H](O)CC(=O)[C@@H]1C/C=C\CCCC(=O)OC (relative stereo) [methyl 9-oxo-11α,16-dihydroxy-17-methyl-5-cis,13-trans-prostadienoate]				76	% Decrease in Mean Arterial Blood Pressure ([5]; intravenous 1.2 mg./kg.): 42%
CCCCC(O)C/C=C/[C@H]1[C@H](O)CC(=O)[C@@H]1C/C=C\CCCC(=O)O (relative stereo) [9-oxo-11α,16-dihydroxy-5-cis; 13-trans-prostadienoic acid]	3.6	2.1	17.3	69	Score treated ([7]; total oral dose 0.39 mg./kg. of body weight): 2.0; Score treated ([7]; total oral dose 0.78 mg./kg. of body weight): 1.0; Percent Inhibition (gastric acid secretion; subcutaneous dose 0.4 mg./kg.): 35%; Percent Inhibition (gastric acid secretion; subcutaneous dose 0.8 mg./kg.): 44%; Percent Inhibition (gastric acid secretion; subcutaneous dose 1.6 mg./kg.): 48%; % Decrease in Mean Arterial Blood Pressure ([5]; intravenous 2.1 mg./kg.): 27%; inhibition in vivo at 2.5 mg/kg ([6]; 1 h, after 60 minutes): 42%
CCCCC(O)C/C=C/[C@H]1[C@H](O)CC(=O)[C@@H]1C/C=C\CCCC(=O)OC (relative stereo) [methyl 9-oxo-11α,16-dihydroxy-5-cis,13-trans-prostadienoate]				100	inhibition in vivo at 0.625 mg/kg ([6]; 1 h, oral dose 0.625 mg./kg., after 60 minutes): 51%; inhibition in vivo at 1.25 mg/kg ([6]; 1 h, oral dose 1.25 mg./kg., after 60 minutes): 75%
CCCCCCCCCCOC(=O)CCC/C=C\C[C@H]1C(=O)C[C@@H](O)[C@@H]1/C=C/CC(O)CCCC (relative stereo) [decyl 9-oxo-11α,16-dihydroxy-5-cis,13-trans-prostadienoate]				60	
CCCCC(O)C/C=C/[C@@H]1[C@@H](C/C=C\CCCC(=O)O)[C@H](O)C[C@H]1O (relative stereo) [9β,11α,16-trihydroxy-5-cis,13-trans-prostadienoic acid]					% Decrease in Mean Arterial Blood Pressure ([5]; intravenous 2.1 mg./kg.): 24%
CCC/C=C/C(O)C/C=C/[C@H]1[C@H](O)CC(=O)[C@@H]1C/C=C\CCCC(=O)O (relative stereo) [9-oxo-11α,16-dihydroxy-20-methyl-5-cis,13-trans,17-trans-prostatrienoic acid]	1.2	2.2	4	44	
CCCC(C)C(O)C/C=C/[C@@H]1[C@@H](C/C=C\CCCC(=O)O)[C@@H](O)C[C@H]1O (relative stereo) [9α,11α,16-trihydroxy-17-methyl-5-cis,13-trans-prostadienoic acid]				96	inhibition in vivo at 0.63 mg/kg ([6]; 1 h, after 60 minutes): 55%; inhibition in vivo at 2.5 mg/kg ([6]; 1 h, after 60 minutes): 66%; inhibition in vivo at 0.63 mg/kg ([6]; 2 h, after 120 minutes): 47%; inhibition in vivo at 2.5 mg/kg ([6]; 2 h, after 120 minutes): 62%; inhibition in vivo at 10 mg/kg ([6]; 2 h, intraduodenal 10 mg./kg., after 120 minutes): 98%
CC/C=C/C(O)C/C=C/[C@H]1C=CC(=O)[C@@H]1C/C=C\CCCC(=O)O (relative stereo) [9-oxo-16-hydroxy-5-cis,10,13-trans,17-trans-prostatetraenoic acid]				83	inhibition in vivo at 10 mg/kg [6, 8]: 43%
CCCCC(O)C/C=C/[C@H]1C=CC(=O)[C@@H]1C/C=C\CCCC(=O)O (relative stereo) [9-oxo-16-hydroxy-5-cis-10,13-trans-prostatrienoic acid]	125	81	1540	44	
